Test results: patent US20230017045A1, “PYRIDINE AND PYRIMIDINE CARBOXYLATE HERBICIDES AND METHODS OF USE THEREOF” (Dow AgroSciences LLC, priority 2017, published 2023)

The compounds below were run on test plant species (assay: Post-emergent herbicidal activity test (greenhouse, foliar spray, visual growth reduction)). Conditions: post-emergence, 336 h, ECHCG: barnyardgrass (Echinochloa crus-galli), 140 g ai/ha, 14 days after application, read-out: Visual Growth Reduction (%) 14 Days After Application, ECHCG.
Assay type: in vivo
Procedure: Post-emergent Test: Seeds or nutlets of the desired test plant species were planted in Sun Gro Metro-Mix® 360 planting mixture, which typically has a pH of 6.0 to 6.8 and an organic matter content of about 30 percent, in plastic pots with a surface area of 64 square centimeters. In some aspects, to ensure good germination and healthy plants, a fungicide treatment and/or other chemical or physical treatment was applied. The plants were grown for 7-21 d in a greenhouse with an approximate 15 h photoperiod which was maintained at 23-29° C. during the day and 22-28° C. during the night. Nutrients and water were added on a regular basis and supplemental lighting was provided with overhead metal halide 1000-Watt lamps as necessary. Plants were used for testing when they reached the first or second true leaf stage. A weighed amount, determined by the highest rate to be tested, of each test compound was placed in a 25 mL glass vial and was dissolved in 4 mL of a 97:3 v/v mixture of acetone and DMSO to obtain concentrated stock solutions. […] The concentrated stock solutions obtained were diluted with 20 mL of an aqueous mixture containing acetone, water, isopropyl alcohol, DMSO, […] crop oil concentrate, and X-77 surfactant in a 48.5:39:10:1.5:1.0:0.02 v/v ratio to obtain spray solutions containing the application rate. Compound requirements are based upon a 12 mL application volume at a rate of 187 liters per hectare (L/ha). Formulated compounds were applied to the plant material with an overhead Mandel track sprayer equipped with […] nozzles calibrated to deliver 187 L/ha over an application area of 0.64 square meters at a spray height of 18 inches (43 cm) above the average plant canopy height. Control plants were sprayed in the same manner with the solvent blank. The treated plants and control plants were placed in a greenhouse as described above and watered by subirrigation to prevent wash-off of the test compounds. After 14 d, the condition of the test plants as compared with that of the nontreated and control plants was determined visually and scored on a scale of 0 to 100 percent where 0 corresponds to no injury and 100 corresponds to complete control. In the reporting of the results, Table A: Percent Growth Reduction Conversion Table was used.

Compound	pest or weed control at 140 g/ha
COc1cc(C(F)(F)F)cc(Cl)c1-c1ccc(Cl)c(C(=O)O)n1 [F223, 3-Chloro-6-(2-chloro-6-methoxy-4-(trifluoromethyl)phenyl) picolinic acid]	75 to 84%
COC(=O)c1nc(-c2cc(F)c(Cl)c(OC)c2)ccc1Cl [F278, Methyl 3-chloro-6-(4-chloro-3-fluoro-5-methoxyphenyl) picolinate]	0 to 29%

Same assay, conditions: post-emergence, 336 h, IPOHE: ivy-leaf morning glory (Ipomoea hederacea), 140 g ai/ha, 14 days after application, read-out: Visual Growth Reduction (%) 14 Days After Application, IPOHE

Compound	pest or weed control at 140 g/ha
COc1cc(C(F)(F)F)cc(Cl)c1-c1ccc(Cl)c(C(=O)O)n1 [F223, 3-Chloro-6-(2-chloro-6-methoxy-4-(trifluoromethyl)phenyl) picolinic acid]	95 to 100%
COC(=O)c1nc(-c2cc(F)c(Cl)c(OC)c2)ccc1Cl [F278, Methyl 3-chloro-6-(4-chloro-3-fluoro-5-methoxyphenyl) picolinate]	0 to 29%

Same assay, conditions: post-emergence, 336 h, KCHSC: kochia (Bassia scoparia), 140 g ai/ha, 14 days after application, read-out: Visual Growth Reduction (%) 14 Days After Application, KCHSC

Compound	pest or weed control at 140 g/ha
COc1cc(C(F)(F)F)cc(Cl)c1-c1ccc(Cl)c(C(=O)O)n1 [F223, 3-Chloro-6-(2-chloro-6-methoxy-4-(trifluoromethyl)phenyl) picolinic acid]	95 to 100%
COC(=O)c1nc(-c2cc(F)c(Cl)c(OC)c2)ccc1Cl [F278, Methyl 3-chloro-6-(4-chloro-3-fluoro-5-methoxyphenyl) picolinate]	0 to 29%

Same assay, conditions: post-emergence, 336 h, ORYSA: rice (Oryza sativa), 140 g ai/ha, 14 days after application, read-out: Visual Growth Reduction (%) 14 Days After Application, ORYSA

Compound	pest or weed control at 140 g/ha
COc1cc(C(F)(F)F)cc(Cl)c1-c1ccc(Cl)c(C(=O)O)n1 [F223, 3-Chloro-6-(2-chloro-6-methoxy-4-(trifluoromethyl)phenyl) picolinic acid]	30 to 44%
COC(=O)c1nc(-c2cc(F)c(Cl)c(OC)c2)ccc1Cl [F278, Methyl 3-chloro-6-(4-chloro-3-fluoro-5-methoxyphenyl) picolinate]	0 to 29%

Same assay, conditions: post-emergence, 336 h, SETFA: giant foxtail (Setaria faberi), 140 g ai/ha, 14 days after application, read-out: Visual Growth Reduction (%) 14 Days After Application, SETFA

Compound	pest or weed control at 140 g/ha
COc1cc(C(F)(F)F)cc(Cl)c1-c1ccc(Cl)c(C(=O)O)n1 [F223, 3-Chloro-6-(2-chloro-6-methoxy-4-(trifluoromethyl)phenyl) picolinic acid]	85 to 94%
COC(=O)c1nc(-c2cc(F)c(Cl)c(OC)c2)ccc1Cl [F278, Methyl 3-chloro-6-(4-chloro-3-fluoro-5-methoxyphenyl) picolinate]	0 to 29%

Same assay, conditions: post-emergence, 336 h, SORVU: grain sorghum (Sorghum vulgare), 140 g ai/ha, 14 days after application, read-out: Visual Growth Reduction (%) 14 Days After Application, SORVU

Compound	pest or weed control at 140 g/ha
COc1cc(C(F)(F)F)cc(Cl)c1-c1ccc(Cl)c(C(=O)O)n1 [F223, 3-Chloro-6-(2-chloro-6-methoxy-4-(trifluoromethyl)phenyl) picolinic acid]	85 to 94%
COC(=O)c1nc(-c2cc(F)c(Cl)c(OC)c2)ccc1Cl [F278, Methyl 3-chloro-6-(4-chloro-3-fluoro-5-methoxyphenyl) picolinate]	0 to 29%

Same assay, conditions: post-emergence, 336 h, STEME: common chickweed (Stellaria media), 140 g ai/ha, 14 days after application, read-out: Visual Growth Reduction (%) 14 Days After Application, STEME

Compound	pest or weed control at 140 g/ha
COc1cc(C(F)(F)F)cc(Cl)c1-c1ccc(Cl)c(C(=O)O)n1 [F223, 3-Chloro-6-(2-chloro-6-methoxy-4-(trifluoromethyl)phenyl) picolinic acid]	60 to 74%
COC(=O)c1nc(-c2cc(F)c(Cl)c(OC)c2)ccc1Cl [F278, Methyl 3-chloro-6-(4-chloro-3-fluoro-5-methoxyphenyl) picolinate]	0 to 29%

Same assay, conditions: post-emergence, 336 h, TRZAS: wheat, spring (Triticum aestivum), 140 g ai/ha, 14 days after application, read-out: Visual Growth Reduction (%) 14 Days After Application, TRZAS

Compound	pest or weed control at 140 g/ha
COc1cc(C(F)(F)F)cc(Cl)c1-c1ccc(Cl)c(C(=O)O)n1 [F223, 3-Chloro-6-(2-chloro-6-methoxy-4-(trifluoromethyl)phenyl) picolinic acid]	75 to 84%
COC(=O)c1nc(-c2cc(F)c(Cl)c(OC)c2)ccc1Cl [F278, Methyl 3-chloro-6-(4-chloro-3-fluoro-5-methoxyphenyl) picolinate]	0 to 29%

Same assay, conditions: post-emergence, 336 h, blackgrass (Alopecurus myosuroides), 14 Days After Application, 140 g ai/ha, read-out: Visual Growth Reduction (%) ALOMY

Compound	pest or weed control at 140 g/ha
COc1cc(C(F)(F)F)cc(Cl)c1-c1ccc(Cl)c(C(=O)O)n1 [F223, 3-Chloro-6-(2-chloro-6-methoxy-4-(trifluoromethyl)phenyl) picolinic acid]	0 to 29%
COC(=O)c1nc(-c2cc(F)c(Cl)c(OC)c2)ccc1Cl [F278, Methyl 3-chloro-6-(4-chloro-3-fluoro-5-methoxyphenyl) picolinate]	0 to 29%

Same assay, conditions: post-emergence, 336 h, canada thistle (Cirsium arvense), 14 Days After Application, 140 g ai/ha, read-out: Visual Growth Reduction (%) CIRAR

Compound	pest or weed control at 140 g/ha
COc1cc(C(F)(F)F)cc(Cl)c1-c1ccc(Cl)c(C(=O)O)n1 [F223, 3-Chloro-6-(2-chloro-6-methoxy-4-(trifluoromethyl)phenyl) picolinic acid]	95 to 100%
COC(=O)c1nc(-c2cc(F)c(Cl)c(OC)c2)ccc1Cl [F278, Methyl 3-chloro-6-(4-chloro-3-fluoro-5-methoxyphenyl) picolinate]	0 to 29%

Same assay, conditions: post-emergence, 336 h, crabgrass (Digitaria sanguinalis), 14 Days After Application, 140 g ai/ha, read-out: Visual Growth Reduction (%) DIGSA

Compound	pest or weed control at 140 g/ha
COc1cc(C(F)(F)F)cc(Cl)c1-c1ccc(Cl)c(C(=O)O)n1 [F223, 3-Chloro-6-(2-chloro-6-methoxy-4-(trifluoromethyl)phenyl) picolinic acid]	60 to 74%
COC(=O)c1nc(-c2cc(F)c(Cl)c(OC)c2)ccc1Cl [F278, Methyl 3-chloro-6-(4-chloro-3-fluoro-5-methoxyphenyl) picolinate]	0 to 29%

Same assay, conditions: post-emergence, 336 h, lambsquarters (Chenopodium album), 14 Days After Application, 140 g ai/ha, read-out: Visual Growth Reduction (%) CHEAL

Compound	pest or weed control at 140 g/ha
COc1cc(C(F)(F)F)cc(Cl)c1-c1ccc(Cl)c(C(=O)O)n1 [F223, 3-Chloro-6-(2-chloro-6-methoxy-4-(trifluoromethyl)phenyl) picolinic acid]	95 to 100%
COC(=O)c1nc(-c2cc(F)c(Cl)c(OC)c2)ccc1Cl [F278, Methyl 3-chloro-6-(4-chloro-3-fluoro-5-methoxyphenyl) picolinate]	0 to 29%

Same assay, conditions: post-emergence, 336 h, redroot pigweed (Amaranthus retroflexus), 14 Days After Application, 140 g ai/ha, read-out: Visual Growth Reduction (%) AMARE

Compound	pest or weed control at 140 g/ha
COc1cc(C(F)(F)F)cc(Cl)c1-c1ccc(Cl)c(C(=O)O)n1 [F223, 3-Chloro-6-(2-chloro-6-methoxy-4-(trifluoromethyl)phenyl) picolinic acid]	95 to 100%
COC(=O)c1nc(-c2cc(F)c(Cl)c(OC)c2)ccc1Cl [F278, Methyl 3-chloro-6-(4-chloro-3-fluoro-5-methoxyphenyl) picolinate]	0 to 29%

Same assay, conditions: post-emergence, 336 h, wild oat (Avena fatua), 14 Days After Application, 140 g ai/ha, read-out: Visual Growth Reduction (%) AVEFA

Compound	pest or weed control at 140 g/ha
COc1cc(C(F)(F)F)cc(Cl)c1-c1ccc(Cl)c(C(=O)O)n1 [F223, 3-Chloro-6-(2-chloro-6-methoxy-4-(trifluoromethyl)phenyl) picolinic acid]	60 to 74%
COC(=O)c1nc(-c2cc(F)c(Cl)c(OC)c2)ccc1Cl [F278, Methyl 3-chloro-6-(4-chloro-3-fluoro-5-methoxyphenyl) picolinate]	0 to 29%

Same assay, conditions: post-emergence, 336 h, yellow nutsedge (Cyperus esculentus), 14 Days After Application, 140 g ai/ha, read-out: Visual Growth Reduction (%) CYPES

Compound	pest or weed control at 140 g/ha
COc1cc(C(F)(F)F)cc(Cl)c1-c1ccc(Cl)c(C(=O)O)n1 [F223, 3-Chloro-6-(2-chloro-6-methoxy-4-(trifluoromethyl)phenyl) picolinic acid]	45 to 59%
COC(=O)c1nc(-c2cc(F)c(Cl)c(OC)c2)ccc1Cl [F278, Methyl 3-chloro-6-(4-chloro-3-fluoro-5-methoxyphenyl) picolinate]	0 to 29%
